In article PMC10823475, “Design, Synthesis, and Evaluation of Inhibitors of Hedgehog Acyltransferase” (Journal of Medicinal Chemistry, 2024):
Read-outs that look alike come from different tables or passages of the source.

Tests used:
[1] = MTS assay, cytotoxicity (72 h); format: cell-based; details: human, HEK293a SHH+ cells, 72 h; for CC50 at 72 h: read-out: MTS Assay (HEK293a SHH+) CC50 (CI95)
Summary of the method: (§1)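 Cells plated at 5000/well, cultured 24 h, then exposed to analogues (0.14–100 μM final) in DMEM/10% FBS for 72 h. MTS/PMS added for 3 h at 37 °C and absorbance read at 490 nm; data normalised to DMSO vehicle and puromycin (2 μg/mL) wells, curves fitted with a variable-slope sigmoidal model.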

HEK293a SHH+ cells = assay: MTS assay, cytotoxicity (72 h); format: cell-based; details: for decrease in cell viability / cell survival: 12.5 μM
Summary of the method: as §1

[2] = Caco-2 permeability assay; format: in vitro ADME, human; details: human; for Papp A→B at 2 h, 10 μM / Papp B→A at 2 h, 10 μM / recovery at 2 h, 10 µM: Caco-2, pH 7.4, 10 µM; for efflux ratio at 2 h, 10 µM: Caco-2, pH 7.4, read-out: Caco-2 Eflux Ratio (B>A/A>B)
Protocol: Apparent permeability (Papp) was determined in the Caco-2 human colon carcinoma cell line. Cells were maintained in DMEM containing 10% fetal bovine serum, penicillin and streptomycin in a humidified atmosphere with 5% CO2 for 10 days. Cells were plated onto a cell culture assembly plate (Millipore, UK) and monolayer confluency was checked using a TEER electrode prior to the assay. Medium was washed off and replaced in the appropriate apical and basal wells with HBSS buffer (pH 7.4) containing compounds (10 μM, 1% DMSO). The Caco-2 plate was incubated for 2 h at 37 °C, and Lucifer yellow was used to confirm membrane integrity postassay. […] Papp was determined as follows: [drawing 1] where Vr = volume of receptical; A = surface area of monolayer; C0 = Initial compound concentration in donor.

[3] = Microsomal incubations, human liver microsomes; format: in vitro ADME; details: 1 μM
Protocol: Metabolic stability assays were performed using a Microlab Star liquid handling workstation (Hamilton Robotics, Bonaduz, Switzerland). Test compounds (1 μM, 1% DMSO) were preincubated at 37 °C for 10 min in 0.5 mg/mL female CD1 mouse and mixed gender human liver microsomes in 10 mM phosphate buffered saline (PBS; Sigma-Aldrich Company Ltd. (Dorset, UK)). Microsomes were purchased either from Sekisui XenoTech, LLC (Kansas City, USA) or BioreclamationIVT (Frankfurt Am Main, Germany). Reactions were initiated by the addition of NADPH (final concentration 1 mM). At 0, 15, and 30 min, aliquots were removed from each incubation and quenched in 3 volumes of ice-cold methanol containing olomoucine (Sigma-Aldrich, Dorset, UK) as an internal standard. […] The percentage metabolized was calculated by comparing peak area ratio (peak area test compound/peak area of internal standard) at t = 15 and 30 min versus t = 0 min.

[4] = PAMPA parallel artificial membrane permeability assay; details: for recovery at 16 h, 10 µM / Papp at 16 h, 10 μM: PAMPA
Protocol: Passive diffusion was estimated using the PAMPA method. […] The donor plate was a MultiScreen-IP Plate with 0.45 μm hydrophobe Immobilon-P Membrane (Millipore, #MAIPNTR10) and the acceptor plate was a MultiScreen 96-well Transport Receiver Plate (Millipore, #MATRNPS50). […] Acceptor pH was 7.4. All samples were analyzed against an external, matrix-matched, standard curve by LC-MS/MS with a Waters (Elstree, Herts. UK) Acquity H-class LC system coupled to a Waters TQ-S mass spectrometer. Permeability values (cm/s) were calculated using the following equation: [drawing 2] and VD = volume of donor; VA = volume of acceptor; area = surface area of the membrane · porosity.

[5] = test system: HH signaling (HEK293a SHH+ conditioned media on SHH-Light2 cells); assay: Light2 dual-luciferase cell-based HH signaling assay (Firefly)
Protocol: Subsequently, the effect of analogues on HH signaling was investigated using a cellular luciferase reporter assay. Light2 cells derived from NIH3T3 cells constitutively express Renilla luciferase as an internal control for cell density alongside Firefly luciferase under the control of a HH-responsive Gli promoter.[43] HEK293a SHH^+ cells were incubated with varying inhibitor concentrations and SHH-containing conditioned media transferred to the NIH3T3-Light2 cells to mimic paracrine signaling[30],[35] (Figure 6A).
The Light2 cell-based signaling assay has been described previously.[35] Briefly, HEK293a SHH^+ cells were plated at 120,000 cells/well of a 12-well plate in a volume of 1 mL/well and cultured as described above. After 24 h, cells were washed with PBS, followed by addition of 1 mL of media containing 0.2% DMSO or varying inhibitor concentrations in DMSO (0.041–30 μM final). Additionally, SHH-Light2 cells were plated at 20,000 cells/well of a 96-well plate in 50 μL media. After another 24 h, 300 μL of the conditioned media were collected from each well of the treated HEK293a SHH^+ cells, centrifuged at 1000g for 10 min to remove detached cells and split into three wells of the SHH-Light2 cells (100 μL/well; 150 μL final volume in each well). The treated Light2 cells were cultured for another 48 h and subsequently washed with PBS. Firefly and Renilla luciferase activity was measured using the Dual-Luciferase reporter system (Promega Corporation, USA). Then 20 μL of 1× passive lysis buffer were added to each well. After 30 min at RT, 5 μL of each lysate were transferred to a white opaque 96-well plate. Then 20 μL/well of luciferase assay reagent II was added and the luminescence immediately recorded using a SpectraMax i3x plate reader (Molecular Devices LLC). Subsequently, 20 μL/well of 1× Stop&Glo substrate in Stop&Glo buffer was added and the luminescence immediately recorded for a second time. Data was evaluated using a “sigmoidal dose response (variable slope)” model in GraphPad Prism 5 (GraphPad Software, Inc.). The luminescence signal of the Firefly luciferase was normalized to the DMSO vehicle (100%) and the unconditioned media (0%) controls.

[6] = + Verapamil (P-glycoprotein inhibitor)
[7] = + Verapamil (P-glycoprotein inhibitor), read-out: Caco-2 A>B Recovery
[8] = + Verapamil (P-glycoprotein inhibitor), read-out: Caco-2 B>A Recovery
[9] = without Verapamil, read-out: Caco-2 A>B Recovery
[10] = without Verapamil, read-out: Caco-2 B>A Recovery
[11] = pH 5, PAMPA Papp pH 5, donor pH 5, 10 µM
[12] = pH 5, PAMPA Permeability Class pH 5, donor pH 5, 10 µM
[13] = pH 6.5, PAMPA Papp pH 6.5, donor pH 6.5, 10 µM
[14] = pH 6.5, PAMPA Permeability Class pH 6.5, donor pH 6.5, 10 µM
[15] = pH 7.4, PAMPA Papp pH 7.4, donor pH 7.4, 10 µM
[16] = pH 7.4, PAMPA Permeability Class pH 7.4, donor pH 7.4, 10 µM
[17] = Firefly luciferase, Light2 cells, read-out: HH signaling inhibition EC50 (CI95)

Row | Papp A→B at 2 h, 10 μM [2, 6] [×10⁻⁶ cm/s] | Papp B→A at 2 h, 10 μM [2, 6] [×10⁻⁶ cm/s] | recovery at 2 h, 10 µM [2, 7] [%] | recovery at 2 h, 10 µM [2, 8] [%] | HLM % metabolized after 15 min [3] [%] | HLM % metabolized after 30 min [3] [%] | recovery at 16 h, 10 µM ([4]; pH 5) [%] | Papp at 16 h, 10 μM [4, 11] [×10⁻⁶ cm/s] | Papp at 16 h, 10 μM [4, 12] [×10⁻⁶ cm/s] | recovery at 16 h, 10 µM ([4]; pH 6.5) [%] | Papp at 16 h, 10 μM [4, 13] [×10⁻⁶ cm/s] | Papp at 16 h, 10 μM [4, 14] [×10⁻⁶ cm/s] | recovery at 16 h, 10 µM ([4]; pH 7.4) [%] | Papp at 16 h, 10 μM [4, 15] [×10⁻⁶ cm/s] | Papp at 16 h, 10 μM [4, 16] [×10⁻⁶ cm/s] | Structure (SMILES) | CC50 at 72 h [1] [µM] | viability at 72 h, 12.5 µM [1] [%] | viability at 72 h, 25 µM [1] [%] | decrease in cell viability / cell survival (HEK293a SHH+ cells) [%] | EC50 [5, 17] [µM] | further results
1 | 8.3 ± 0.9 | 12.5 ± 1.9 | 41.1 ± 1 | 51.6 ± 1 | 43.0 | 69.5 | < 31 | < 1.5 | < 5 | < 10 | 10.9 | 5 to 20 | < 10 | 20.4 | > 20 | C=CCNCC(=O)N1CCc2sccc2C1COc1ccc(Cl)cc1 (stereo not drawn) [Compound 2] | 35.9 | 56 ± 3 | 50 ± 2 | 44 | – | Papp A→B at 2 h, 10 μM ([2]; without Verapamil): 14.5 ± 0.4 ×10⁻⁶ cm/s; Papp B→A at 2 h, 10 μM ([2]; without Verapamil): 12.4 ± 2.1 ×10⁻⁶ cm/s; recovery at 2 h, 10 µM [2, 9]: 56.7 ± 1.9%; recovery at 2 h, 10 µM [2, 10]: 87.8 ± 1.2%; efflux ratio at 2 h, 10 µM [2]: 0.86; PAMPA passive permeability ([4]; pH 7.4): high passive permeability
2 | – | – | – | – | – | – | – | – | – | – | – | – | – | – | – | Cc1cccc(C2c3ccsc3CCN2C(=O)CNCC(C)C)n1 (stereo not drawn) [Compound 24] | > 50 | 88 ± 3 | 80 ± 3 | – | 1.18 | –
3 | – | – | – | – | 52.5 | 64.3 | 95 | > 200 | > 20 | 98 | 117 | > 20 | 91 | > 200 | > 20 | CC(=O)N1CCc2sccc2C1c1ccccc1 (stereo not drawn) [Compound 5] | 13.9 | 73 ± 2 | 76 ± 4 | < 30 | 4.56 | PAMPA permeability ([4]; over the full pH range tested): high permeability; PAMPA passive permeability ([4]; pH 7.4): high passive permeability
4 | – | – | – | – | – | – | – | – | – | – | – | – | – | – | – | Cc1cccc([C@@H]2c3ccsc3CCN2C(=O)CNCC(C)C)n1 [Compound 28] | > 100 | 108 ± 7 | 105 ± 4 | – | > 30 | effect on HH signaling [5]: inactive
5 | 35.5 ± 2 | 22.7 ± 3.3 | 70 ± 2.5 | 75.7 ± 2 | 36.9 | 56.2 | < 65 | < 0.4 | < 5 | < 23 | 13 | 5 to 20 | < 15 | 42.4 | > 20 | CCC(C)CNCC(=O)N1CCc2sccc2C1c1cccc(C)n1 (stereo not drawn) [Compound 22] | > 50 | 92 ± 1 | 89 ± 3 | – | 0.58 | Papp A→B at 2 h, 10 μM ([2]; without Verapamil): 39.2 ± 0.7 ×10⁻⁶ cm/s; Papp B→A at 2 h, 10 μM ([2]; without Verapamil): 29.7 ± 0.2 ×10⁻⁶ cm/s; recovery at 2 h, 10 µM [2, 9]: 88.7 ± 0.1%; recovery at 2 h, 10 µM [2, 10]: 108 ± 3.1%; efflux ratio at 2 h, 10 µM [2]: 0.76; PAMPA passive permeability ([4]; pH 7.4): high passive permeability
6 | 14.2 ± 0.8 | 19.8 ± 2 | 58.6 ± 0.9 | 66.6 ± 1.9 | 44.4 | 66.7 | < 31 | < 0.7 | < 5 | < 10 | < 9.7 | 5 to 20 | < 10 | < 4.5 | < 5 | CCC(C)CNCC(=O)N1CCc2sccc2C1c1cccc(C)c1 (stereo not drawn) [Compound 17] | 40.7 | 42 ± 3 | 55 ± 1 | – | 1.17 | toxicity to HEK293a SHH+ cells (HEK293a SHH+ cells): toxic; Papp A→B at 2 h, 10 μM ([2]; without Verapamil): 17 ± 2.5 ×10⁻⁶ cm/s; Papp B→A at 2 h, 10 μM ([2]; without Verapamil): 17.4 ± 4.1 ×10⁻⁶ cm/s; recovery at 2 h, 10 µM [2, 9]: 60.5 ± 2.4%; recovery at 2 h, 10 µM [2, 10]: 80.4 ± 2.2%; efflux ratio at 2 h, 10 µM [2]: 1.02
7 | – | – | – | – | 28.8 | 36.9 | – | – | – | – | – | – | – | – | – | Cc1cccc([C@H]2c3ccsc3CCN2C(=O)CNCC(C)C)n1 [Compound 30] | > 50 | 101 ± 6 | 98 ± 5 | < 30 | 0.1 | CC50 (HEK293a SHH+ cells; 72 h, read-out: MTS Assay (HEK293a SHH+) CC50 (CI95)): > 100 µM; EC50 ([5]; Light2 luciferase reporter, read-out: EC50 against HH signaling): 0.099 µM
